According to patent US12448369B2 (Edgewise Therapeutics, Inc., priority 2023, dated 2025):

Experiments:
[1] = system: Rabbit Psoas myofibrils (skeletal myosin ATPase); experiment: Myofibril ATPase assay, rabbit psoas (skeletal) myofibrils; type: biochemical; conditions: rabbit psoas myofibrils; Y75 value
Procedure, shortened: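 Readout: A340 decline from NADH oxidation, PK/LDH-coupled to ADP release; kinetic reads over 75 min. Buffer: pCa (PIPES, CaCl2, EGTA), pH 7.0. Linear-regression slopes vs vehicle, 4PL fit; reported as concentration giving 75% (Y75) or 125% (Y125) of vehicle activity.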

[2] = system: Porcine atria myofibrils (atrial myosin ATPase); experiment: Myofibril ATPase assay, porcine atria myofibrils; type: biochemical; conditions: porcine atria myofibrils; Y75 value (75% activity relative to no compound)
Procedure, shortened: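 Coupled PK-LDH readout, NADH loss at 340 nm, kinetic 75 min. Porcine atria myofibrils, pCa buffer (PIPES/CaCl2/EGTA, pH 7.0). Slopes (mAU/min) normalized to vehicle = 100%, 4-parameter fit; Y75 or Y125 reported.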

[3] = target: T1, Porcine ventricle myofibrils (ventricular myosin ATPase) (Sus scrofa, UniProt P79293); experiment: Myofibril ATPase assay, porcine ventricle myofibrils; type: biochemical, porcine (Yucatan minipigs); conditions: porcine ventricle myofibrils; Y75 value
T1 construct: Myofibrils from porcine cardiac muscle was isolated from the left ventricle of Yucatan minipigs; tissue Exemplar Genetics; host or cells: left ventricle of Yucatan minipigs, myofibrils prepared in house
T1 sequence (P79293 whole entry): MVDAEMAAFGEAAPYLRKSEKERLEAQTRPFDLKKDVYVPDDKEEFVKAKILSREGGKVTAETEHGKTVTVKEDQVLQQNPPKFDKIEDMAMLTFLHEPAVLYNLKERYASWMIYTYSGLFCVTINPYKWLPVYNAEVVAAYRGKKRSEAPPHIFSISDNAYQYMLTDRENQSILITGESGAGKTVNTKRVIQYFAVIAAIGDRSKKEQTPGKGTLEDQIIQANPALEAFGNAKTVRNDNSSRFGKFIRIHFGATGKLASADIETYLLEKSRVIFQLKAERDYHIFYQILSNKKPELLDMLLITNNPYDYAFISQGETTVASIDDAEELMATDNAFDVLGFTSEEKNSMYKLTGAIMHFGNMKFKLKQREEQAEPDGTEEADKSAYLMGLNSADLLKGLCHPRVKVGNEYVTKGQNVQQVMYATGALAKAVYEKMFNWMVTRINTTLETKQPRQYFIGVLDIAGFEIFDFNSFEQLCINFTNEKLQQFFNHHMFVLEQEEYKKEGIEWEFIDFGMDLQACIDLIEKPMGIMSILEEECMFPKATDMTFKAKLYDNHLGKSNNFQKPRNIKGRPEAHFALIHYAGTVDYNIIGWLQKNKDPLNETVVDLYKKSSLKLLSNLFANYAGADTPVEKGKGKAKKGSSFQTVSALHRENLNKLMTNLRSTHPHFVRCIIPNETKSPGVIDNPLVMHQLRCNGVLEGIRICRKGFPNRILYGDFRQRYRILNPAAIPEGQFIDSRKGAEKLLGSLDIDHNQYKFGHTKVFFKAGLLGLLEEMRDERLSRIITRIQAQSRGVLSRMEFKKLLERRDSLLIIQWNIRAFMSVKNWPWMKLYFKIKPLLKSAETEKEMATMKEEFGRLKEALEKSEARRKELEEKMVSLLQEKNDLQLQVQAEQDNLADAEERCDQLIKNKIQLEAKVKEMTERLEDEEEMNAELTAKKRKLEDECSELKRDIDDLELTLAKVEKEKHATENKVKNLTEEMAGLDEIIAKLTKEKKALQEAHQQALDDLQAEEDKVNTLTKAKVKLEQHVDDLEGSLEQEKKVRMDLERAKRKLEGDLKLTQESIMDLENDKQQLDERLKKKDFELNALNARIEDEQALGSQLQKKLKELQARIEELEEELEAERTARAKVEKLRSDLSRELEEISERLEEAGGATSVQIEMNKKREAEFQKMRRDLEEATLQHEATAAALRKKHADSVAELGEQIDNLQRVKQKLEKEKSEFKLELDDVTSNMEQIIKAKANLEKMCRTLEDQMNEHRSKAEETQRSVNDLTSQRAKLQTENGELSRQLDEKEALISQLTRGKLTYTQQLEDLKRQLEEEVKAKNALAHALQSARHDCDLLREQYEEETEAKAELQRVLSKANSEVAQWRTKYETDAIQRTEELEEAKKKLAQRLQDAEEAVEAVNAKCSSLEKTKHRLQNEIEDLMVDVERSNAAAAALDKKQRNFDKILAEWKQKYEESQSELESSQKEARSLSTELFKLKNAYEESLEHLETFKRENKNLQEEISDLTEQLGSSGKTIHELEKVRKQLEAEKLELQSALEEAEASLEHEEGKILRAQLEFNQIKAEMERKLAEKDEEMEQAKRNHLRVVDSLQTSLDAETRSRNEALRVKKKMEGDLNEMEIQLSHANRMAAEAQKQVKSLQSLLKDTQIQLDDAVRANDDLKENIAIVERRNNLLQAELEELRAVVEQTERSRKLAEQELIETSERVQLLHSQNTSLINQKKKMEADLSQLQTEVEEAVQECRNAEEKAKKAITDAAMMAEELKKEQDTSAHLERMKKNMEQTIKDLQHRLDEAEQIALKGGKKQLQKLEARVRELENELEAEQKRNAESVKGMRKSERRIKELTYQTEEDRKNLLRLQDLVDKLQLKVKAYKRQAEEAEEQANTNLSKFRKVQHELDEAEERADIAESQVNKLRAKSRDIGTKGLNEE
Procedure, shortened: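 Test compounds acted on myofibrils isolated from the left ventricle of Yucatan minipigs. ADP formation was coupled via pyruvate kinase/lactate dehydrogenase to NADH oxidation, monitored kinetically at 340 nm over 75 min. Rates relative to vehicle were fitted with a 4-parameter logistic model, reported as Y75 (25% inhibition) or Y125 (activation) concentrations.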

Row | Skeletal EC25 [1] [nM] | Atrial EC25 [2] [nM] | Ventricular EC25 [3] [nM] | Structure (SMILES)
1 | 510 | 340 | 6440 | Cc1c([C@H](C)C(=O)N[C@@H](C)c2ccc(F)cc2F)c(=O)[nH]c2ccnc(OC(F)(F)F)c12 (single isomer, unassigned) [compound 348]
2 | 15360 | 290 | 60830 | Cc1c([C@H](C)C(=O)N[C@@H](C)c2ccc(F)cc2F)c(=O)[nH]c2ccc(C(F)(F)F)nc12 (single isomer, unassigned) [compound 369]
3 | 510 | 60 | 48160 | Cc1c([C@@H](C)C(=O)N[C@@H](C)c2ccc(F)cc2F)c(=O)[nH]c2ccc(C(F)(F)F)nc12 (single isomer, unassigned) [compound 370]
4 | 170 | 270 | 4580 | Cc1c([C@H](C)C(=O)N[C@@H](C)c2ccc(F)cc2F)c(=O)[nH]c2ccnc(F)c12 (single isomer, unassigned) [compound 375]
5 | 30 | 160 | 1330 | Cc1c([C@@H](C)C(=O)N[C@@H](C)c2ccc(F)cc2F)c(=O)[nH]c2ccnc(F)c12 (single isomer, unassigned) [compound 376]
6 | 300 | 910 | 18330 | Cc1nccc2[nH]c(=O)c([C@@H](C)C(=O)N[C@@H](C)c3ccc(F)cc3F)c(C)c12 (single isomer, unassigned) [compound 399]
7 | 760 | 5460 | 100000 | Cc1nccc2[nH]c(=O)c([C@@H](C)C(=O)N[C@@H](C)c3ccc(F)cc3F)c(C(F)(F)F)c12 (single isomer, unassigned) [compound 410]
8 | 10760 | 20630 | 100000 | Cc1nccc2[nH]c(=O)c([C@H](C)C(=O)N[C@@H](C)c3ccc(F)cc3F)c(C(F)(F)F)c12 (single isomer, unassigned) [compound 413]
9 | 4490 | 1910 | 17240 | COc1nccc2[nH]c(=O)c([C@H](C)C(=O)N[C@@H](C)c3ccc(F)cc3F)c(C(F)(F)F)c12 (single isomer, unassigned) [compound 424]
10 | 1310 | 94540 | 100000 | COc1nccc2[nH]c(=O)c([C@@H](C)C(=O)N[C@@H](C)c3ccc(F)cc3F)c(C(F)(F)F)c12 (single isomer, unassigned) [compound 425]
11 | 12740 | 4840 | 66840 | C[C@H](NC(=O)[C@@H](C)c1c(C(F)(F)F)c2cnccc2[nH]c1=O)c1ccc(F)cc1F (single isomer, unassigned) [compound 426]

The next lines start with the compound.

Row | Structure (SMILES) | Skeletal EC25 [1] [nM] | Atrial EC25 [2] [nM] | Ventricular EC25 [3] [nM]
12 | C[C@H](NC(=O)[C@@H](C)c1cc2c(C3CC3)nccc2[nH]c1=O)c1ccc(F)cc1F (single isomer, unassigned) [compound 356] | 157500 | 100000 | 100000
13 | Cc1c([C@@H](Cc2ccccc2)C(=O)N[C@@H](C)c2ccc(F)cc2F)c(=O)[nH]c2ccnc(F)c12 (single isomer, unassigned) [compound 358] | 100000 | 23890 | 54710
14 | C[C@H](NC(=O)[C@H](C)c1cc2c(C#N)nccc2[nH]c1=O)c1ccc(F)cc1F (single isomer, unassigned) [compound 360] | 50 | 100000 | 100000
15 | C[C@H](NC(=O)[C@@H](C)c1cc2c(C#N)nccc2[nH]c1=O)c1ccc(F)cc1F (single isomer, unassigned) [compound 361] | 30 | 1290 | 3680
16 | C[C@H](NC(=O)[C@@H](C)c1cc2nc(F)ccc2[nH]c1=O)c1ccc(F)cc1F (single isomer, unassigned) [compound 364] | 440 | 1160 | 4710
17 | Cc1c([C@@H](C)C(=O)N[C@@H](C)c2ccc(F)cc2F)c(=O)[nH]c2ccnc(Cl)c12 (single isomer, unassigned) [compound 365] | 30 | 180 | 920
18 | Cc1c([C@H](C)C(=O)N[C@@H](C)c2ccc(F)cc2F)c(=O)[nH]c2ccnc(Cl)c12 (single isomer, unassigned) [compound 366] | 40 | 140 | 1480
19 | C[C@H](NC(=O)[C@@H](C)c1cc2c(F)nccc2[nH]c1=O)c1ccc(F)cc1F (single isomer, unassigned) [compound 367] | 290 | 2230 | 36080
20 | C[C@H](NC(=O)[C@H](C)c1cc2c(F)nccc2[nH]c1=O)c1ccc(F)cc1F (single isomer, unassigned) [compound 368] | 430 | 1660 | 43640
21 | Cc1nccc2[nH]c(=O)c(CC(=O)N[C@H](C)c3ncc(F)cc3F)c(C)c12 (single isomer, unassigned) [compound 378] | 3180 | 100000 | 100000
22 | Cc1nccc2[nH]c(=O)c(CC(=O)N[C@@H](C)c3ncc(F)cc3F)c(C)c12 (single isomer, unassigned) [compound 379] | 360 | 2360 | 5810
23 | Cc1nccc2[nH]c(=O)c(CC(=O)N[C@@H](CO)c3ccc(F)cc3F)c(C)c12 (single isomer, unassigned) [compound 396] | 550 | 1180 | 3320
24 | Cc1nccc2[nH]c(=O)c([C@H](C)C(=O)N[C@@H](C)c3ccc(F)cc3F)c(C)c12 (single isomer, unassigned) [compound 398] | 230 | 2730 | 59630
25 | Cc1cc(F)cc(F)c1[C@H](C)NC(=O)Cc1c(C)c2c(C)nccc2[nH]c1=O (single isomer, unassigned) [compound 403] | 190 | 40230 | 2080
26 | Cc1cc(F)cc(F)c1[C@@H](C)NC(=O)Cc1c(C)c2c(C)nccc2[nH]c1=O (single isomer, unassigned) [compound 404] | 350 | 100000 | 42840
27 | CCOc1nccc2[nH]c(=O)c([C@H](C)C(=O)N[C@@H](C)c3ccc(F)cc3F)c(C(F)(F)F)c12 (single isomer, unassigned) [compound 415] | 130 | 2220 | 12580
28 | CCOc1nccc2[nH]c(=O)c([C@@H](C)C(=O)N[C@@H](C)c3ccc(F)cc3F)c(C(F)(F)F)c12 (single isomer, unassigned) [compound 416] | 460 | 100000 | 100000
